Experimental data: patent publication US20230072421A1, “TARGETED RADIOPHARMACEUTICALS FOR THE DIAGNOSIS AND TREATMENT OF PROSTATE CANCER” (Bayer AS, priority 2019, published 2023)

Key:
C4-2 cells = experiment: Cell proliferation assay (CellTiter-Glo, 5-day exposure), C4-2; type: cell-based; conditions: C4-2, 1000 cells/well, Th-227 labelled at 375 kBq/nmol, mean of 1 to 6 experiments
In short: (§1)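 Cells were plated (4000/well VCaP, 1000/well for the other lines), left overnight at 37 °C with 5% CO2, then exposed for 5 days to Thorium-227-labelled PSMA ligands. Viability before and after exposure was measured by CellTiter-Glo.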

VCaP cells = experiment: Cell proliferation assay (CellTiter-Glo, 5-day exposure), VCaP; type: cell-based; conditions: 4000 cells/well, Th-227 labelled at 375 kBq/nmol, mean of 1 to 6 experiments
In short: as §1

[1] = Biodistribution study in LNCaP tumor-bearing mice (Th227 counted in organs); type: in vivo, SCID mice; conditions: 1500 kBq/kg
Experimental: (§2) SCID mice were randomly assigned to experimental groups, ten animals per group (efficacy) or n=3-5 per time point of biodistribution study. At the initiation of the study, a testosterone pellet was subcutaneously transplanted, the animals were shaved, tattooed and each cage was labeled with the cage number, study number and number of animals per cage.
(§3) LNCaP human prostate cancer cells were cultured as described according to the supplier's protocols. Cells were harvested for transplantation in a subconfluent (70%) state. Animals were injected with 5×10^6 LNCaP cells suspended in 100% Matrigel subcutaneously into the flank of the mice.
Biodistribution study: When tumors reached a predetermined size in mice of ˜50 mm^2 animals were randomized into groups (n=3 animals/time point) and the radioactive compound was once applied intravenously. The i.v. application volume was 100 μl/mice.
At the predetermined time point, n=3 animals were sacrificed, the organs removed, weight and measured in a Germanium detector to count the Th227 in the sample.

[2] = tested on: LNCaP human prostate cancer cells; experiment: LNCaP xenograft efficacy study (T/C tumor area); type: in vivo, SCID mice
Experimental: as §2, §3
Efficacy study: When tumors reached a predetermined size in mice of 35-50 mm^2 animals were randomized into treatment and control groups (n=10 animals/group) and treatment with the defined radioactive dose was started. The i.v. application volume was 100 μl/mice.
Tumor response was assessed by determination of the tumor area (product of the longest diameter and its perpendicular) using a caliper. The animal body weight was monitored as a measure for treatment-related toxicity. Measurement of tumor area and body weight was performed two to three times weekly.
Animals were sacrificed when showing signs of toxicity (>20% body weight loss) or when tumors reached a size of approximately 200 mm^2.
Tumor growth inhibition is presented as T/C ratio (Treatment/Control) calculated with tumor areas when the vehicle control group had to be closed.

22Rv1 cells = experiment: Cell proliferation assay (CellTiter-Glo, 5-day exposure), 22Rv1; type: cell-based; conditions: 22Rv1, 1000 cells/well, Th-227 labelled at 375 kBq/nmol, mean of 1 to 6 experiments
In short: as §1

## O=C([O-])CN1CCN(CC(=O)[O-])CCN(CC(=O)NCc2ccc(C(=O)N[C@@H](Cc3ccc4ccccc4n3)C(=O)NCCCC[C@H](NC(=O)N[C@@H](CCC(=O)O)C(=O)O)C(=O)O)nc2)CCN(CC(=O)[O-])CC1.[227Th+4] [Example 34-B-227Th, {N^6-[3-(quinolin-2-yl)-N-{5-[(2-{4,7,10-tris[(carboxy-kappaO)methyl]-1,4,7,10-tetraazacyclododecan-1-yl-kappa^4N^1,N^4,N^7,N^10}acetamido)methyl]pyridine-2-carbonyl}-L-alanyl]-N^2-{[(1S)-1,3-dicarboxypropyl]carbamoyl}-L-lysinato(4−)}(^227Th)Thorate(1−)]
C4-2 cells
  Proliferation assay on cancer cell lines by TTCs Default Pivot #3 IC50 [kBq/mL] C4-2 1000cells 375kBq/nmol (mean): 0.63 kBq/mL
VCaP cells
  Proliferation assay on cancer cell lines by TTCs Default Pivot #3 IC50 [kBq/mL] VCap 4000cells 375kBq/nmol (mean): 1.75 kBq/mL
[1]; 0.25 h
  Th-227 in Blood: 1.78% ID Th-227/g organ
  Th-227 in Liver: 1.69% ID Th-227/g organ
  Th-227 in Spleen: 17.32% ID Th-227/g organ
  Th-227 in Tumor: 6.33% ID Th-227/g organ
  Th-227 in bone: 1.66% ID Th-227/g organ
  Th-227 in brain: 0.12% ID Th-227/g organ
  Th-227 in kidney: 62.53% ID Th-227/g organ
  Th-227 in large intestine: 0.67% ID Th-227/g organ
  Th-227 in lung: 4.04% ID Th-227/g organ
  Th-227 in muscle: 1.02% ID Th-227/g organ
  Th-227 in prostate: 0.00% ID Th-227/g organ
  Th-227 in salivary glands: 3.14% ID Th-227/g organ
  Th-227 in small intestine: 1.36% ID Th-227/g organ
[1]
  Accumulation in the tumor (in words): good and stable accumulation in the tumor
[1]; 1 hr
  Th-227 in Blood: 0.58% ID Th-227/g organ
  Th-227 in Liver: 0.88% ID Th-227/g organ
  Th-227 in Spleen: 19.69% ID Th-227/g organ
  Th-227 in Tumor: 9.15% ID Th-227/g organ
  Th-227 in bone: 1.27% ID Th-227/g organ
  Th-227 in brain: 0.02% ID Th-227/g organ
  Th-227 in kidney: 69.22% ID Th-227/g organ
  Th-227 in large intestine: 0.45% ID Th-227/g organ
  Th-227 in lung: 2.79% ID Th-227/g organ
  Th-227 in muscle: 0.54% ID Th-227/g organ
  Th-227 in prostate: 0.62% ID Th-227/g organ
  Th-227 in salivary glands: 1.75% ID Th-227/g organ
  Th-227 in small intestine: 0.64% ID Th-227/g organ
[1]; 4 hr
  Th-227 in Blood: 0.07% ID Th-227/g organ
  Th-227 in Liver: 0.55% ID Th-227/g organ
  Th-227 in Spleen: 11.57% ID Th-227/g organ
  Th-227 in Tumor: 7.00% ID Th-227/g organ
  Th-227 in bone: 1.44% ID Th-227/g organ
  Th-227 in brain: 0.00% ID Th-227/g organ
  Th-227 in kidney: 65.52% ID Th-227/g organ
  Th-227 in large intestine: 0.79% ID Th-227/g organ
  Th-227 in lung: 1.48% ID Th-227/g organ
  Th-227 in muscle: 0.41% ID Th-227/g organ
  Th-227 in prostate: 4.08% ID Th-227/g organ
  Th-227 in salivary glands: 1.05% ID Th-227/g organ
  Th-227 in small intestine: 1.13% ID Th-227/g organ
[1]; 24 h
  Th-227 in Blood: 0.01% ID Th-227/g organ
  Th-227 in Liver: 0.23% ID Th-227/g organ
  Th-227 in Spleen: 1.21% ID Th-227/g organ
  Th-227 in Tumor: 10.56% ID Th-227/g organ
  Th-227 in bone: 1.21% ID Th-227/g organ
  Th-227 in brain: 0.00% ID Th-227/g organ
  Th-227 in kidney: 21.02% ID Th-227/g organ
  Th-227 in large intestine: 0.10% ID Th-227/g organ
  Th-227 in lung: 0.27% ID Th-227/g organ
  Th-227 in muscle: 0.00% ID Th-227/g organ
  Th-227 in prostate: 0.00% ID Th-227/g organ
  Th-227 in salivary glands: 0.11% ID Th-227/g organ
  Th-227 in small intestine: 0.08% ID Th-227/g organ
[1]; 96 h
  Th-227 in Blood: 0.00% ID Th-227/g organ
  Th-227 in Liver: 0.19% ID Th-227/g organ
  Th-227 in Spleen: 0.43% ID Th-227/g organ
  Th-227 in Tumor: 9.97% ID Th-227/g organ
  Th-227 in bone: 1.08% ID Th-227/g organ
  Th-227 in brain: 0.00% ID Th-227/g organ
  Th-227 in kidney: 9.71% ID Th-227/g organ
  Th-227 in large intestine: 1.44% ID Th-227/g organ
  Th-227 in lung: 0.13% ID Th-227/g organ
  Th-227 in muscle: 0.00% ID Th-227/g organ
  Th-227 in prostate: 0.00% ID Th-227/g organ
  Th-227 in salivary glands: 0.10% ID Th-227/g organ
  Th-227 in small intestine: 0.25% ID Th-227/g organ
[2]; Example III, day 64 after start of therapy, single treatment 1.5 MBq/kg
  T/Carea: 0.23
[2]; Example IV, day 36 after start of therapy, once 1 MBq/kg
  T/Carea: 0.66
22Rv1 cells
  Proliferation assay on cancer cell lines by TTCs Default Pivot #3 IC50 [kBq/mL] 22Rv1 1000cells 375kBq/nmol (mean): 0.76 kBq/mL
